Measurements from patent US20230203485A1, “METHODS FOR MODULATING MHC-I EXPRESSION AND IMMUNOTHERAPY USES THEREOF” (Dana-Farber Cancer Institute, Inc., priority 2020, published 2023).

Key:
Assay type in all cases: cell-based, human
class I bound peptides = assay: HLA-I immunoprecipitation and LC-MS/MS immunopeptidome of cell lines +/- IFN-γ
Description: Up to 40 million or 0.2 g of MCC cells were immunoprecipitated. Briefly, MCC cells were harvested and lysed in ice-cold lysis buffer containing […] (pH 8.0), 1 mM EDTA (pH 8.0), 0.1M sodium chloride, Triton X-100, 0.06M octyl β-d-glucopyranoside, 100 U/mL DNAse I, 1 mM phenylmethanesulfonyl fluoride (all from Sigma Aldrich), and protease inhibitor cocktail (Roche Diagnostics). Cell lysate was centrifuged at 12,700 rpm at 4° C. for 22 min. Lysate supernatant was coupled with Gammabind Plus sepharose beads (GE Healthcare) and incubated with 10 μg of HLA-I antibody (Clone W6/32, Santa Cruz Biotechnologies) at 4° C. under rotary agitation for 3 h. After incubation, the lysate-bead-antibody mixture was briefly centrifuged and the supernatant was discarded. Beads were washed with lysis buffer, consisting of wash buffer containing 40 mM Tris (pH 8.0), 1 mM EDTA (pH 8.0), 0.1M sodium chloride, 0.06M octyl β-d-glucopyranoside, and 20 mM Tris buffer, without protease inhibitors. […] Peptides of up to three immunoprecipitations were combined, acid eluted, and analyzed using LC/MS-MS. […] Peptides were eluted in a 6-30% gradient (EasyLC 1000 or 1200, Thermo Fisher Scientific) and analyzed on a QExactive Plus, Fusion Lumos, or Orbitrap Exploris 480 (Thermo Fisher Scientific). […] Fractions were analyzed on a Fusion Lumos or Orbitrap Exploris 480 equipped with a FAIMSpro interface. […]

class I gene transcripts = assay: RNA-seq of MCC lines before and after IFN-γ stimulation
Description: For samples from the MCC tumors and newly generated cell lines, RNA was first assessed for quality using the Agilent Bioanalyzer (DV200 metric). 100 ng of RNA were used as the input for first strand cDNA synthesis using Superscript III reverse transcriptase and Illumina's TruSeq RNA Access Sample Prep Kit. Synthesis of the second strand of cDNA was followed by indexed adapter ligation with UMI (unique molecular index) adaptors. Subsequent PCR amplification enriched for adapted fragments. Amplified libraries were quantified, normalized, pooled, and hybridized with exome targeting oligos. Following hybridization, bead clean-up, elution, and PCR was performed to prepare library pools for sequencing on Illumina flowcell lanes. Transcriptomes were sequenced to a coverage of at least 50 million reads in pairs.
Gene counts were obtained from BAM files using featureCounts version 2.0.0. Very lowly expressed genes with average count across samples less than 1 were excluded from analysis. […]
Differential expression analysis was carried out between IFN-γ plus and minus samples (adjusting for viral status as a covariate) using the negative binomial GLM Wald test of DESeq2, where significance was assessed using the p-values adjusted for multiple comparisons under default settings. […]

[1] = test system: HLA-DR expression on MCC cell lines; assay: Flow cytometry assessment of HLA-DR expression in MCC lines at baseline and after IFN-γ; conditions: MCC-301 line
Description: FIG. 1N is a graph showing flow cytometry assessment of HLA-DR expression in all 11 MCC lines, both at baseline (light pink) and after IFN-γ treatment (red).
Cells were dissociated with Versene and incubated with 5 μL Human TruStain FcX (Fc receptor blocking solution; Biolegend, Dedham, Mass.) per million cells in […] at room temperature for 10 min. Fluorochrome-conjugated antibodies or respective isotype controls were immediately added and incubated for another 30 min at 4° C. Cells were then washed once with PBS and resuspended in PBS containing 4% paraformaldehyde and analyzed on LSR Fortessa cytometers. Additional steps were described for individual experiments as below. For upregulation of HLA Class I experiment, 5×10^5 MCC cells were treated with increasing doses of IFNα2b, IFN3, IFNγ for 24 hours, or MEK inhibitors and DMSO for 72 hours before staining with W6/32 and Live/Dead as above.

Substance	median fold increase in the abundance of class I bound peptides (class I bound peptides; across 7 cell lines, following IFN-γ stimulation)	frequencies of peptides mapping to each HLA allele (class I bound peptides; cell lines with vs without IFN-γ treatment)	class I gene transcripts (class I gene transcripts; MCC lines, IFN-γ treatment)	HLA-A, -B, and -C mRNA upregulation (class I gene transcripts; MCC-336 (non-IFN-γ-responsive))	HLA-DR expression [1]
IFN-γ: interferon gamma used to stimulate MCC cell lines	12 fold	increase in HLA-B-presented peptides	markedly upregulated	lack of IFN-induced HLA-A, -B, and -C mRNA upregulation	–
IFN-y: type II interferon, recombinant human, used to treat MCC cells	–	–	–	–	inducible HLA-DR expression
